This test has as its target TNAP (Homo sapiens (Human), UniProt P05186). The test is described as follows: TNAP (PPi) inhibition assay, pyrophosphate as substrate. The class given is biochemical. The gist of the method: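 Enzyme source was conditioned serum-free medium from COS-1 cells transiently expressing tagged human TNAP, dialyzed against TBS with MgCl2/ZnCl2. Activity on natural substrate PPi at pH 7.4 read as liberated phosphate (Biomol Green).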

On to `COc1ccc(OC)c(S(=O)(=O)Nc2cncc(-c3cscn3)c2)c1` [Example III-85, 2,5-Dimethoxy-N-(5-(thiazol-4-yl)pyridin-3-yl)benzenesulfonamide], for which the IC50 – broadly, the concentration at which inhibition is half-maximal – is less than 100 nM.

With `COc1ccc(Br)cc1S(=O)(=O)Nc1cncc(-c2cscn2)c1` [Example III-86, 5-Bromo-2-methoxy-N-(5-(thiazol-4-yl)pyridin-3-yl)benzenesulfonamide], the half-inhibitory concentration (IC50) was less than 100 nM.

As for `COc1ccc(Cl)cc1S(=O)(=O)Nc1cncc(-c2cscn2)c1` [Example III-87, 5-Chloro-2-methoxy-N-(5-(thiazol-4-yl)pyridin-3-yl)benzenesulfonamide], the IC50 was less than 100 nM. Molecule `COc1ccc(OC)c(S(=O)(=O)Nc2cncc(-c3cnn(C)c3)c2)c1` [Example III-88, 2,5-Dimethoxy-N-(5-(1-methyl-1H-pyrazol-4-yl)pyridin-3-yl)benzenesulfonamide] yielded an IC50 of less than 100 nM. The result for `COc1ccc(Br)cc1S(=O)(=O)Nc1cncc(-c2cnn(C)c2)c1` [Example III-89, 5-Bromo-2-methoxy-N-(5-(1-methyl-1H-pyrazol-4-yl)pyridin-3-yl)benzenesulfonamide] reads less than 100 nM; that for `COc1ccc(Cl)cc1S(=O)(=O)Nc1cncc(-c2cnn(C)c2)c1` [Example III-90, 5-Chloro-2-methoxy-N-(5-(1-methyl-1H-pyrazol-4-yl)pyridin-3-yl)benzenesulfonamide], less than 100 nM. As to `COc1ccc(OC)c(S(=O)(=O)Nc2cncc(-c3ncccn3)c2)c1` [Example III-91, 2,5-Dimethoxy-N-(5-(pyrimidin-2-yl)pyridin-3-yl)benzenesulfonamide], the IC50 lay in the range of 100 to 1000 nM.

Molecule `COc1ccc(Br)cc1S(=O)(=O)Nc1cncc(-c2ncccn2)c1` [Example III-92, 5-Bromo-2-methoxy-N-(5-(pyrimidin-2-yl)pyridin-3-yl)benzenesulfonamide] showed an IC50 of less than 100 nM.

For `COc1ccc(Cl)cc1S(=O)(=O)Nc1cncc(-c2ncccn2)c1` [Example III-93, 5-Chloro-2-methoxy-N-(5-(pyrimidin-2-yl)pyridin-3-yl)benzenesulfonamide], the IC50 is less than 100 nM.

With `COc1ccc(OC)c(S(=O)(=O)Nc2cncc(-c3cnccn3)c2)c1` [Example III-94, 2,5-Dimethoxy-N-(5-(pyrazin-2-yl)pyridin-3-yl)benzenesulfonamide], the IC50 was less than 100 nM. The molecule `COc1ccc(Br)cc1S(=O)(=O)Nc1cncc(-c2cnccn2)c1` [Example III-95, 5-Bromo-2-methoxy-N-(5-(pyrazin-2-yl)pyridin-3-yl)benzenesulfonamide] came in with an IC50 of less than 100 nM. To `COc1ccc(Cl)cc1S(=O)(=O)Nc1cncc(-c2cnccn2)c1` [Example III-96, 5-Chloro-2-methoxy-N-(5-(pyrazin-2-yl)pyridin-3-yl)benzenesulfonamide] belongs less than 100 nM. `COC(=O)c1cncc(NS(=O)(=O)c2cc(Br)ccc2OC)c1` [Example IV-1, Methyl 5-(5-bromo-2-methoxyphenylsulfonamido)nicotinate] showed an IC50 of less than 100 nM. Turning to `CCOC(=O)c1cncc(NS(=O)(=O)c2cc(Br)ccc2OC)c1` [Example IV-2, Ethyl 5-(5-bromo-2-methoxyphenylsulfonamido)nicotinate], the concentration for half-maximal inhibition (IC50) was less than 100 nM. For `CCCOC(=O)c1cncc(NS(=O)(=O)c2cc(Br)ccc2OC)c1` [Example IV-3, Propyl 5-(5-bromo-2-methoxyphenylsulfonamido)nicotinate], the IC50 is less than 100 nM. For the molecule `COc1ccc(Br)cc1S(=O)(=O)Nc1cncc(C(=O)OC2CCCCC2)c1` [Example IV-4, Cyclohexyl 5-(5-bromo-2-methoxyphenylsulfonamido)nicotinate], the half-inhibitory concentration (IC50) is less than 100 nM. `COc1ccc(Br)cc1S(=O)(=O)Nc1cncc(C(=O)Oc2ccccc2)c1` [Example IV-5, Phenyl 5-(5-bromo-2-methoxyphenylsulfonamido)nicotinate] gave an IC50 of less than 100 nM. To `CCOC(=O)c1cncc(NS(=O)(=O)c2cc(Cl)ccc2OC)c1` [Example IV-7, Ethyl 5-(5-chloro-2-methoxyphenylsulfonamido)nicotinate] belongs less than 100 nM; to `CCCOC(=O)c1cncc(NS(=O)(=O)c2cc(Cl)ccc2OC)c1` [Example IV-8, Propyl 5-(5-chloro-2-methoxyphenylsulfonamido)nicotinate], less than 100 nM; to `COc1ccc(Cl)cc1S(=O)(=O)Nc1cncc(C(=O)OC2CCCCC2)c1` [Example IV-9, Cyclohexyl 5-(5-chloro-2-methoxyphenylsulfonamido)nicotinate], less than 100 nM. The molecule `COc1ccc(Cl)cc1S(=O)(=O)Nc1cncc(C(=O)Oc2ccccc2)c1` [Example IV-10, Phenyl 5-(5-chloro-2-methoxyphenylsulfonamido)nicotinate] yielded a half-inhibitory concentration (IC50) of less than 100 nM. For `COC(=O)c1cncc(NS(=O)(=O)c2cc(OC)ccc2OC)c1` [Example IV-11, Methyl 5-(2,5-dimethoxyphenylsulfonamido)nicotinate], the half-maximal inhibitory concentration (IC50) was less than 100 nM. With `CCOC(=O)c1cncc(NS(=O)(=O)c2cc(OC)ccc2OC)c1` [Example IV-12, Ethyl 5-(2,5-dimethoxyphenylsulfonamido)nicotinate], the IC50 was less than 100 nM. Take `CCCOC(=O)c1cncc(NS(=O)(=O)c2cc(OC)ccc2OC)c1` [Example IV-13, Propyl 5-(2,5-dimethoxyphenylsulfonamido)nicotinate]: the IC50 was less than 100 nM.

Consider `COc1ccc(OC)c(S(=O)(=O)Nc2cncc(C(=O)OC3CCCCC3)c2)c1` [Example IV-14, Cyclohexyl 5-(2,5-dimethoxyphenylsulfonamido)nicotinate], for which the half-maximal inhibitory concentration (IC50) is less than 100 nM. The molecule `COc1ccc(OC)c(S(=O)(=O)Nc2cncc(C(=O)Oc3ccccc3)c2)c1` [Example IV-15, Phenyl 5-(2,5-dimethoxyphenylsulfonamido)nicotinate] returned an IC50 of less than 100 nM.

The molecule `CNC(=O)c1cncc(NS(=O)(=O)c2cc(Br)ccc2OC)c1` [Example IV-16, 5-(5-Bromo-2-methoxyphenylsulfonamido)-N-methylnicotinamide] had an IC50 of 100 to 1000 nM. For `CCNC(=O)c1cncc(NS(=O)(=O)c2cc(Br)ccc2OC)c1` [Example IV-18, 5-(5-Bromo-2-methoxyphenylsulfonamido)-N-ethylnicotinamide], the IC50 lay within 100 to 1000 nM.

`CCCNC(=O)c1cncc(NS(=O)(=O)c2cc(Br)ccc2OC)c1` [Example IV-19, 5-(5-Bromo-2-methoxyphenylsulfonamido)-N-propylnicotinamide] had an IC50 of 100 to 1000 nM. Molecule `COc1ccc(Br)cc1S(=O)(=O)Nc1cncc(C(=O)NC2CCCCC2)c1` [Example IV-20, 5-(5-Bromo-2-methoxyphenylsulfonamido)-N-cyclohexylnicotinamide] had a half-inhibitory concentration (IC50) of less than 100 nM. `COCCNC(=O)c1cncc(NS(=O)(=O)c2cc(Br)ccc2OC)c1` [Example IV-21, 5-(5-Bromo-2-methoxyphenylsulfonamido)-N-(2-methoxyethyl)nicotinamide]: the IC50 lay in the range of 100 to 1000 nM. As for `COc1ccc(Br)cc1S(=O)(=O)Nc1cncc(C(=O)NCCN(C)C)c1` [Example IV-22, 5-(5-Bromo-2-methoxyphenylsulfonamido)-N-(2-(dimethylamino)ethyl)nicotinamide], the IC50 was 100 to 1000 nM. Turning to `COc1ccc(Br)cc1S(=O)(=O)Nc1cncc(C(=O)Nc2ccccc2)c1` [Example IV-23, 5-(5-Bromo-2-methoxyphenylsulfonamido)-N-phenylnicotinamide], the concentration for half-maximal inhibition (IC50) was in the range of 100 to 1000 nM. For the molecule `COc1ccc(Br)cc1S(=O)(=O)Nc1cncc(C(=O)N2CCOCC2)c1` [Example IV-24, 5-Bromo-2-methoxy-N-(5-(morpholine-4-carbonyl)pyridin-3-yl)benzenesulfonamide], the 50% inhibitory concentration (IC50) is more than 1000 nM. To `COc1ccc(Br)cc1S(=O)(=O)Nc1cncc(C(=O)N2CCN(C)CC2)c1` [Example IV-25, 5-Bromo-2-methoxy-N-(5-(4-methylpiperazine-1-carbonyl)pyridin-3-yl)benzenesulfonamide] belongs 100 to 1000 nM; to `COc1ccc(Cl)cc1S(=O)(=O)Nc1cncc(C(N)=O)c1` [Example IV-26, 5-(5-Chloro-2-methoxyphenylsulfonamido)nicotinamide], less than 100 nM. The molecule `CCCNC(=O)c1cncc(NS(=O)(=O)c2cc(Cl)ccc2OC)c1` [Example IV-29, 5-(5-Chloro-2-methoxyphenylsulfonamido)-N-propylnicotinamide] displayed a half-inhibitory concentration (IC50) of less than 100 nM. To `COc1ccc(Cl)cc1S(=O)(=O)Nc1cncc(C(=O)NC2CCCCC2)c1` [Example IV-30, 5-(5-Chloro-2-methoxyphenylsulfonamido)-N-cyclohexylnicotinamide] belongs less than 100 nM; to `COCCNC(=O)c1cncc(NS(=O)(=O)c2cc(Cl)ccc2OC)c1` [Example IV-32, 5-(5-Chloro-2-methyoxyphenylsulfonamido)-N-(2-methoxyethyl)nicotinamide], 100 to 1000 nM. Consider `COc1ccc(Cl)cc1S(=O)(=O)Nc1cncc(C(=O)NCCN(C)C)c1` [Example IV-33, 5-(5-Chloro-2-methoxyphenylsulfonamido)-N-(2-(dimethylamino)ethyl)nicotinamide], for which the IC50 lay in the range of 100 to 1000 nM. Consider `COc1ccc(Cl)cc1S(=O)(=O)Nc1cncc(C(=O)N2CCOCC2)c1` [Example IV-34, 5-Chloro-2-methoxy-N-(5-(morpholine-4-carbonyl)pyridin-3-yl)benzenesulfonamide], for which the IC50 was 100 to 1000 nM.

In the case of `COc1ccc(OC)c(S(=O)(=O)Nc2cncc(C(N)=O)c2)c1` [Example IV-36, 5-(2,5-Dimethoxyphenylsulfonamido)nicotinamide], the IC50 was 100 to 1000 nM. Consider `CNC(=O)c1cncc(NS(=O)(=O)c2cc(OC)ccc2OC)c1` [Example IV-37, 5-(2,5-Dimethoxyphenylsulfonamido)-N-methylnicotinamide], for which the half-inhibitory concentration (IC50) lay within 100 to 1000 nM. Regarding `CCCNC(=O)c1cncc(NS(=O)(=O)c2cc(OC)ccc2OC)c1` [Example IV-38, 5-(2,5-Dimethoxyphenylsulfonamido)-N-propylnicotinamide], the IC50 lay in the range of 100 to 1000 nM.

Source of the values: patent US10370333B2 (Sanford Burnham Prebys Medical Discovery Institute, priority 2012, dated 2019).
